# In ChEMBL document CHEMBL1147240, “Lactones from the leaves of Litsea japonica and their anti-complement activity” (J Nat Prod, 2003):
# Assay: Inhibition of human serum complement system-mediated hemolysis
row,Compound,IC50 [µM]
1,"CC/C=C/CCCCCCCC/C=C/C1=CC(C)OC1=O (single isomer, unassigned) [LITSEALACTONE A]",787
2,C=C/C=C/CCCCCCCC/C=C/C1=C[C@H](C)OC1=O [AKOLACTONE B],58
3,C#CCCCCCCCC/C=C/C1=C[C@H](C)OC1=O [HAMABIWALACTONE A],714
4,C=CCCCCCCCC/C=C/C1=C[C@H](C)OC1=O [HAMABIWALACTONE B],149
5,O=C(/C=C/c1ccc(O)c(O)c1)O[C@H](Cc1ccc(O)c(O)c1)C(=O)O [ROSMARINIC ACID],180
